Experimental data as given in PubChem BioAssay (NCI).
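Interpolation was linear, between the two tested concentrations surrounding the appropriate level; five concentrations were tested over 48 hours in 96-well plates. Definition used: TGI = concentration required for complete inhibition of growth.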

Experiments:
Assay in all cases: NCI anticancer screen, dose series, 48 h
A498 renal = system: A498 renal
ACHN renal = system: ACHN renal
CCRF-CEM leukemia = system: CCRF-CEM leukemia
COLO 205 colon = system: COLO 205 colon
HCC-2998 colon = system: HCC-2998 colon
HCT-116 colon = system: HCT-116 colon
HL-60(TB) leukemia = system: HL-60(TB) leukemia
HOP-92 NSCLC = system: HOP-92 NSCLC
LOX IMVI melanoma = system: LOX IMVI melanoma
MCF7 breast = system: MCF7 breast
MDA-MB-231 breast = system: MDA-MB-231 breast
MDA-MB-435 = system: MDA-MB-435
NCI-H522 lung = system: NCI-H522 lung
NCI/ADR-RES ovarian = system: NCI/ADR-RES ovarian
RPMI-8226 leukemia = system: RPMI-8226 leukemia
SK-MEL-5 melanoma = system: SK-MEL-5 melanoma
T-47D breast = system: T-47D breast
UACC-257 melanoma = system: UACC-257 melanoma
HT29 colon = system: HT29 colon
SK-OV-3 ovarian = system: SK-OV-3 ovarian

Structure (SMILES) | TGI (A498 renal) [µM] | TGI (ACHN renal) [µM] | TGI (CCRF-CEM leukemia) [µM] | TGI (COLO 205 colon) [µM] | TGI (HCC-2998 colon) [µM] | TGI (HCT-116 colon) [µM] | TGI (HL-60(TB) leukemia) [µM] | TGI (HOP-92 NSCLC) [µM] | TGI (LOX IMVI melanoma) [µM] | TGI (MCF7 breast) [µM] | TGI (MDA-MB-231 breast) [µM] | TGI (MDA-MB-435) [µM] | TGI (NCI-H522 lung) [µM] | TGI (NCI/ADR-RES ovarian) [µM] | TGI (RPMI-8226 leukemia) [µM] | TGI (SK-MEL-5 melanoma) [µM] | TGI (T-47D breast) [µM] | TGI (UACC-257 melanoma) [µM] | TGI (HT29 colon) [µM] | TGI (SK-OV-3 ovarian) [µM]
Cc1c(C)c2c(c(N)c1C#N)C(=O)N(CCc1ccccc1)C2=O | > 100 | > 100 | > 100 | > 100 | > 100 | > 100 | > 100 | > 100 | > 100 | > 100 | > 100 | > 100 | > 100 | > 100 | > 100 | > 100 | > 100 | > 100 |  | 
C/C1=C/C(C)CC(C)OC(=O)C(C)NC(=O)C(Cc2ccc(O)c(I)c2)N(C)C(=O)CNC(=O)C(C)C1 (stereo not drawn) | < 0.0134 |  | < 0.01 | > 100 | 13.2 | > 100 | < 0.01 | 0.0654 | < 0.01 | > 100 | 1.99 | 16.6 |  | > 77.3 | 0.757 | 13.2 | > 100 | 5.97 | > 100 | 2.16
N#CC(C#N)N=Cc1ccncc1 | > 100 | > 100 | > 100 | > 100 | > 100 | > 100 | > 100 | > 100 | > 100 | > 100 | > 100 | > 100 |  | > 100 | > 100 | > 100 | > 100 | > 100 | > 100 | > 100
CC[C@](O)(CC(=O)O[C@H]1C(=O)O[C@@H]2C[C@H]3C(C)=CC(=O)[C@@H](O)[C@]3(C)[C@H]3[C@@]4(O)OC[C@]32[C@@H]1[C@@H](C)[C@H]4O)C(C)C | < 0.01 | < 0.01 | < 0.01 | < 0.01 | < 0.01 | < 0.01 | < 0.01 | < 0.01 | < 0.01 | < 0.0392 | < 0.0119 | < 0.01 | < 0.01 | 0.242 |  | < 0.01 | < 0.01 | < 0.01 | < 0.01 | < 0.01
c1ccc2c(C3CCN(CCN4CCOCC4)C3)c[nH]c2c1 (stereo not drawn) | > 100 | > 100 | > 100 |  | > 100 | > 100 | > 100 | > 100 | > 100 | > 100 | > 100 | > 100 | > 100 | > 100 | > 100 | > 100 | > 100 | > 100 | > 100 | > 100
O=[n+]1c2ccccc2n([O-])c2ccccc21 | > 100 | > 100 | > 100 | > 100 |  | > 100 | 72.4 |  | > 100 | > 100 | > 100 | > 100 | > 100 | > 100 | > 100 | > 100 | > 100 | > 100 | > 100 | 
CC12CCC3[C@@H](CC3(C)C)C(O)(CCC1=O)C2 (stereo partly drawn) |  | > 100 | > 100 | > 100 | > 100 | > 100 | > 100 | > 100 | > 100 | > 100 | > 100 | > 100 |  | > 100 | > 100 | > 100 | > 100 | > 100 | > 100 | > 100
COc1ccc2c(c1)/C(=C\c1c(C)nc3n1CCS3)C(=O)N2 | 99.6 | > 100 | > 100 | 41.9 | > 100 | > 100 | 66.8 | > 100 | > 100 | > 100 | > 100 | 11.5 |  | > 100 | > 100 | > 100 | > 100 | > 100 | > 100 | 63.3
N=c1oc2ccc([N+](=O)[O-])cc2cc1C(=O)NCc1ccccc1 |  | 31.1 | > 100 | 40.5 | > 100 | 32 | > 100 | 36.7 | 32.2 | > 100 | 60.9 | 49.3 | 25.8 | 33.6 | > 100 | 41.6 | 67.3 | 38.2 | 40.7 | > 100
CCC(C)C(C(=O)N/N=C1/SCC(=O)N1c1ccccc1)C(=O)N/N=C1/SCC(=O)N1c1ccccc1 (stereo not drawn) |  | > 100 | > 100 | > 100 | > 100 | 58.9 | > 100 | 45.2 | > 100 | > 100 | 88.7 | 35.9 | > 100 | > 100 |  | 41.7 | > 100 | > 100 | > 100 | 74.6
CC(=O)C(I(OS(=O)(=O)c1ccc(C)cc1)c1ccccc1)=P(c1ccccc1)(c1ccccc1)c1ccccc1 | > 100 | > 100 | 78.3 | 31.4 | 39 | 50.2 | 76.3 | 54.7 |  | > 100 | 69.3 | 32.4 | 24.5 | > 100 | 61.1 | 63.3 | 85.3 | 59 | 49.6 | > 100
CSc1nc(C)c2c(n1)SCC2 | > 10 | > 10 | > 10 | > 10 |  | > 10 | > 10 | > 10 | > 10 | > 10 | > 10 | > 10 |  | > 10 | > 10 | > 10 | > 10 | > 10 | > 10 | > 10
COc1cc(S(=O)(=O)Nc2nc(-c3ccc(N4C(=O)CSC4c4cccs4)cc3)cs2)ccc1Cl (stereo not drawn) | > 100 | > 100 | > 100 | > 100 |  | > 100 | > 100 | > 100 | 48.2 | > 100 | > 100 | > 100 | 83.2 | > 100 |  | > 100 | > 100 | > 100 | > 100 | > 100
COc1nc(C)nc2sc3c(c12)CCCC3 | > 100 | > 100 |  | > 100 | > 100 | > 100 | > 100 |  | > 100 | > 100 | > 100 | > 100 | > 100 | > 100 | > 100 | > 100 | > 100 | > 100 | > 100 | 
COc1cccc(OC/C(N=Cc2cccnc2)=N/NC(=O)c2ccncc2)c1 | > 100 | > 100 | > 100 | > 100 | > 100 | > 100 | > 100 | > 100 | > 100 | > 100 | > 100 | > 100 | > 100 | > 100 | > 100 |  | > 100 | > 100 | > 100 | > 100
CO[C@H]1c2cccc3cccc(c23)[C@@H]1n1[nH]c(=O)n(C(C)(C)C)c1=O | > 100 |  | > 100 | > 100 | > 100 | > 100 | > 100 |  | > 100 | > 100 | > 100 | > 100 | > 100 | > 100 | > 100 |  | > 100 | > 100 | > 100 | > 100
CN(C)C=Nc1cccc2nsnc12 | > 100 | > 100 | > 100 | > 100 |  | > 100 | > 100 | > 100 | > 100 | > 100 | > 100 | > 100 | > 100 | > 100 | > 100 | > 100 | > 100 | > 100 | > 100 | > 100
COC(=O)c1c(O)ccc2c1c1c(n2Cc2ccccc2)C(=O)c2ccccc2C1=O |  | 25.3 | 46.8 | 3.32 | 17.9 | 27.8 | 47.2 | 27.1 | 41.6 | 35 | 32.2 | 28 | 23.8 | 28.8 | 29.2 | 31.9 | 42.1 | 32.8 | 22.6 | 30.1
O=C(c1cc(Cl)cc(Cl)c1)N(C(=O)N1CCN(c2ccccc2)CC1)c1ccccc1 | > 100 | > 100 | > 100 | 39.6 | > 100 | > 100 | > 100 | > 100 | > 100 | > 100 | > 100 | 48.5 | > 100 | > 100 |  | 75.7 | > 100 | > 100 | > 100 | > 100
CC1=NN(C(=O)CC(=O)Nc2ccc(C)cc2)C(=O)C1N=Nc1ccc(C(=O)O)cc1 (stereo not drawn) | > 100 | > 100 | > 100 | > 100 | > 100 | > 100 | > 100 | > 100 | > 100 | > 100 | > 100 | > 100 | > 100 | > 100 | > 100 | > 100 | > 100 | > 100 | > 100 | 
COc1cc(OCc2ccc3nc(-c4ccccc4)c(Cl)nc3c2)cc(OC)c1OC | 98.9 | > 100 | > 100 | > 100 | > 100 | > 100 | > 100 | 78.3 | > 100 | > 100 | > 100 | > 100 | > 100 | > 100 | > 100 | > 100 | > 100 | > 100 | > 100 | 
OC1(CCc2ccccc2)COC(C(F)(F)F)(C(F)(F)F)C1 (stereo not drawn) | > 100 | > 100 | > 100 | > 100 | > 100 | > 100 | > 100 |  | > 100 | > 100 | > 100 | > 100 | > 100 | > 100 | > 100 | > 100 | > 100 |  | > 100 | > 100
Cc1cc(C)nc(NS(=O)(=O)c2ccc(NNc3c4ccccc4nc4c(C(=O)Nc5ccc(S(=O)(=O)Nc6ncccn6)cc5)cccc34)cc2)n1 |  | 54.3 | 59.9 | 54.3 | 51.2 | 39.2 | 62.9 | 66.5 | 45.1 | > 100 | 65.3 | 55.3 | 48.9 | > 100 | 76.8 | 47.5 | 74.3 | 94.3 | 77.4 | 89.9
N#C/C(=C\c1cn(Cc2ccccc2)c2ccccc12)c1nn(-c2ccccc2)c(N)c1C#N | 59.3 | 75.6 | 47.8 | 56.2 |  | > 100 | > 100 | 27.2 | > 100 | > 100 | 14.2 | 74.6 | 34.7 | 49 | > 100 | 23.6 | 23.3 | 50 | 27.3 | 40
